Measured values from patent US11236087B2, “Highly active pyrazolo-piperidine substituted indole-2-carboxamides active against the hepatitis B virus (HBV)” (AiCuris GmbH & Co. KG, priority 2017, dated 2022).

Assays:
[1] = Cell viability assay (AlamarBlue) in HepAD38 cells; settings: human
HBV = experiment: Determination of HBV DNA from the supernatants of HepAD38 cells (anti-HBV activity); assay type: cell-based, hepatitis B virus; settings: Hepatitis B virus, 144 h; HBV DNA in HepAD38 supernatant, day 6, qPCR; read-out: Cell Activity (EC50)
Experimental: Determination of HBV DNA from the Supernatants of HepAD38 Cells
The anti-HBV activity was analysed in the stable transfected cell line HepAD38, which has been described to secrete high levels of HBV virion particles (Ladner et al., 1997). In brief, HepAD38 cells were cultured at 37° C. at 5% CO2 and 95% humidity in 200 μl maintenance medium, which was Dulbecco's modified Eagle's medium/Nutrient Mixture F-12 (Gibco, Karlsruhe), 10% fetal bovine serum (PAN Biotech Aidenbach) supplemented with 50 μg/ml penicillin/streptomycin (Gibco, Karlsruhe), 2 mM L-glutamine (PAN Biotech, Aidenbach), 400 μg/ml G418 (AppliChem, Darmstadt) and 0.3 μg/ml tetracycline. Cells were subcultured once a week in a 1:5 ratio, but were usually not passaged more than ten times. For the assay 60,000 cells were seeded in maintenance medium without any tetracycline into each well of a 96-well plate and treated with serial half-log dilutions of test compound. To minimize edge effects the outer 36 wells of the plate were not used but were filled with assay medium. On each assay plate six wells for the virus control (untreated HepAD38 cells) and six wells for the cell control (HepAD38 cells treated with 0.3 μg/ml tetracycline) were allocated, respectively. In addition, one plate set with reference inhibitors like BAY 41-4109, entecavir, and lamivudine instead of screening compounds were prepared in each experiment. In general, experiments were performed thrice in triplicates. At day 6 HBV DNA from 100 μl filtrated cell culture supernatant (AcroPrep Advance 96 Filter Plate, […] Supor membran, PALL GmbH, Dreieich) was automatically purified on the MagNa Pure LC instrument using the MagNA Pure 96 DNA and Viral NA Small Volume Kit (Roche Diagnostics, Mannheim) according to the instructions of the manufacturer. EC50 values were calculated from relative copy numbers of HBV DNA In brief, 5 μl of the 100 μl eluate containing HBV DNA were subjected to PCR LC480 Probes Master Kit (Roche) together with 1 μM antisense primer […], 0.5 μM sense primer […], 0.3 μM hybprobes […]-FL and LC640-[…]-PH (TIBMoBiol, Berlin) to a final volume of 12.5 μl. The PCR was performed on the Light Cycler 480 real time system (Roche Diagnostics, Mannheim) using the following protocol: Pre-incubation for 1 min at 95° C., amplification: 40 cycles×(10 sec at 95° C., 50 sec at 60° C., 1 sec at 70° C.), cooling for 10 sec at 40° C. Viral load was quantitated against known standards using HBV plasmid DNA of pCH-9/3091 (Nassal et al., 1990, Cell 63: 1357-1363) and the LightCycler 480 SW 1.5 software (Roche Diagnostics, Mannheim) and EC50 values were calculated using non-linear regression with GraphPad Prism 6 (GraphPad Software Inc., La Jolla, USA).

Compound | CC50 at 6 days [1] | EC50 (HBV)
COC(=O)CC1(N(C)C(=O)c2n[nH]c3c2CN(C(=O)c2cc4ccccc4[nH]2)CC3)CC1 [Example 226, methyl 2-{1-[N-methyl 5-(1H-indole-2-carbonyl)-1H,4H,5H,6H,7H-pyrazolo[4,3-c]pyridine-3-amido]cyclopropyl}acetate] | > 10 µM | 1 to 25 µM
O=C(c1cc2ccccc2[nH]1)N1CCc2n[nH]c(C(=O)N3CC(F)(F)CC34CC4)c2C1 [Example 401, 2-(3-{6,6-difluoro-4-azaspiro[2.4]heptane-4-carbonyl}-2H,4H,5H,6H,7H-pyrazolo[4,3-c]pyridine-5-carbonyl)-1H-indole] | > 10 µM | < 1 µM
O=C(c1cc2ccccc2[nH]1)N1CCc2[nH]nc(C(=O)N3CCCC34CCC4)c2C1 [Example 151, 2-(3-{5-azaspiro[3.4]octane-5-carbonyl}-1H,4H,5H,6H,7H-pyrazolo[4,3-c]pyridine-5-carbonyl)-1H-indole] | > 10 µM | 1 to 25 µM
CC(F)(F)c1cc(F)cc2[nH]c(C(=O)N3CCc4n[nH]c(C5CCC5)c4C3)cc12 [Example 399, 2-{3-cyclobutyl-2H,4H,5H,6H,7H-pyrazolo[4,3-c]pyridine-5-carbonyl}-4-(1,1-difluoroethyl)-6-fluoro-1H-indole] | > 10 µM | < 1 µM
CCc1cccc2[nH]c(C(=O)N3CCc4[nH]nc(C(=O)N5CCC(F)(F)C5)c4C3)cc12 [Example 228, 2-[3-(3,3-difluoropyrrolidine-1-carbonyl)-1H,4H,5H,6H,7H-pyrazolo[4,3-c]pyridine-5-carbonyl]-4-ethyl-1H-indole] | > 10 µM | < 1 µM
C[C@@H]1CCC[C@@H](C)N1C(=O)c1n[nH]c2c1CN(C(=O)c1cc3ccccc3[nH]1)CC2 [Example 146, 2-{3-[(2R,6R)-2,6-dimethylpiperidine-1-carbonyl]-1H,4H,5H,6H,7H-pyrazolo[4,3-c]pyridine-5-carbonyl}-1H-indole] | > 10 µM | 1 to 25 µM
CN(C(=O)c1n[nH]c2c1CN(C(=O)c1cc3c(Cl)cc(F)cc3[nH]1)CC2)C1(CO)CC1 [Example 241, 5-(4-chloro-6-fluoro-1H-indole-2-carbonyl)-N-[1-(hydroxymethyl)cyclopropyl]-N-methyl-1H,4H,5H,6H,7H-pyrazolo[4,3-c]pyridine-3-carboxamide] | > 10 µM | < 1 µM
Cc1cc(F)cc2[nH]c(C(=O)N3CCc4[nH]nc(C(=O)N(C)C5(CO)CC5)c4C3)cc12 [Example 243, 5-(6-fluoro-4-methyl-1H-indole-2-carbonyl)-N-[1-(hydroxymethyl)cyclopropyl]-N-methyl-1H,4H,5H,6H,7H-pyrazolo[4,3-c]pyridine-3-carboxamide] | > 10 µM | < 1 µM
O=C(c1cc2ccccc2[nH]1)N1CCc2[nH]nc(S(=O)(=O)N3CCCC3)c2C1 [Example 210, 2-[3-(pyrrolidine-1-sulfonyl)-1H,4H,5H,6H,7H-pyrazolo[4,3-c]pyridine-5-carbonyl]-1H-indole] | > 10 µM | < 1 µM
O=C(c1cc2c(Cl)cc(F)cc2[nH]1)N1CCc2[nH]nc(C(=O)N3CCCC34CC4)c2C1 [Example 215, 2-(3-{4-azaspiro[2.4]heptane-4-carbonyl}-1H,4H,5H,6H,7H-pyrazolo[4,3-c]pyridine-5-carbonyl)-4-chloro-6-fluoro-1H-indole] | > 10 µM | < 1 µM
O=C(c1cc2c(Cl)cccc2[nH]1)N1CCc2[nH]nc(C(=O)N3CCC(F)(F)C3)c2C1 [Example 230, 4-chloro-2-[3-(3,3-difluoropyrrolidine-1-carbonyl)-1H,4H,5H,6H,7H-pyrazolo[4,3-c]pyridine-5-carbonyl]-1H-indole] | > 10 µM | < 1 µM
CN(C(=O)c1[nH]nc2c1CN(C(=O)c1cc3ccc(F)cc3[nH]1)CC2)C1CC1 [Example 320, N-cyclopropyl-5-(6-fluoro-1H-indole-2-carbonyl)-N-methyl-2H,4H,5H,6H,7H-pyrazolo[4,3-c]pyridine-3-carboxamide] | > 10 µM | < 1 µM
CO/N=C(\c1n[nH]c2c1CN(C(=O)c1cc3ccccc3[nH]1)CC2)C1CC1 [Example 289, (Z)-{cyclopropyl[5-(1H-indole-2-carbonyl)-1H,4H,5H,6H,7H-pyrazolo[4,3-c]pyridin-3-yl]methylidene}(methoxy)amine] | > 10 µM | 1 to 25 µM
CN(C(=O)c1[nH]nc2c1CN(C(=O)c1cc3cccc(F)c3[nH]1)CC2)C1CC1 [Example 319, N-cyclopropyl-5-(7-fluoro-1H-indole-2-carbonyl)-N-methyl-2H,4H,5H,6H,7H-pyrazolo[4,3-c]pyridine-3-carboxamide] | > 10 µM | < 1 µM
O=C(c1cc2ccccc2[nH]1)N1CCc2[nH]nc(C(=O)N3CCCC(F)(F)C3)c2C1 [Example 187, 2-[3-(3,3-difluoropiperidine-1-carbonyl)-1H,4H,5H,6H,7H-pyrazolo[4,3-c]pyridine-5-carbonyl]-1H-indole] | > 10 µM | < 1 µM
O=C(c1cc2c(F)ccc(F)c2[nH]1)N1CCc2[nH]nc(C3CCC3)c2C1 [Example 396, 2-{3-cyclobutyl-1H,4H,5H,6H,7H-pyrazolo[4,3-c]pyridine-5-carbonyl}-4,7-difluoro-1H-indole] | > 10 µM | < 1 µM
CN(C(=O)c1n[nH]c2c1CN(C(=O)c1cc3cc(F)c(Cl)cc3[nH]1)CC2)C1(CO)CC1 [Example 242, 5-(6-chloro-5-fluoro-1H-indole-2-carbonyl)-N-[1-(hydroxymethyl)cyclopropyl]-N-methyl-1H,4H,5H,6H,7H-pyrazolo[4,3-c]pyridine-3-carboxamide] | > 10 µM | < 1 µM
CN(C(=O)c1[nH]nc2c1CN(C(=O)c1cc3ccccc3[nH]1)CC2)C1(C(=O)OC(C)(C)C)CC1 [Example 258, tert-butyl 1-[N-methyl 5-(1H-indole-2-carbonyl)-2H,4H,5H,6H,7H-pyrazolo[4,3-c]pyridine-3-amido]cyclopropane-1-carboxylate] | > 10 µM | 1 to 25 µM
O=C(c1cc2ccccc2[nH]1)N1CCc2[nH]nc(C(=O)N(C3CCOCC3)C3CC3)c2C1 [Example 293, N-cyclopropyl-5-(1H-indole-2-carbonyl)-N-(oxan-4-yl)-1H,4H,5H,6H,7H-pyrazolo[4,3-c]pyridine-3-carboxamide] | > 10 µM | < 100 µM
O=C(c1cc2c(Cl)cccc2[nH]1)N1CCc2[nH]nc(C(=O)N3CCCC34CC4)c2C1 [Example 216, 2-(3-{4-azaspiro[2.4]heptane-4-carbonyl}-1H,4H,5H,6H,7H-pyrazolo[4,3-c]pyridine-5-carbonyl)-4-chloro-1H-indole] | > 10 µM | < 1 µM
O=C(c1cc2ccc(F)c(F)c2[nH]1)N1CCc2n[nH]c(C3CCC3)c2C1 [Example 389, 2-{3-cyclobutyl-2H,4H,5H,6H,7H-pyrazolo[4,3-c]pyridine-5-carbonyl}-6,7-difluoro-1H-indole] | > 10 µM | < 1 µM
O=C(c1cc2ccccc2[nH]1)N1CCc2[nH]nc(C(=O)N3CC(F)(F)C(F)(F)C3)c2C1 [Example 223, 2-[3-(3,3,4,4-tetrafluoropyrrolidine-1-carbonyl)-1H,4H,5H,6H,7H-pyrazolo[4,3-c]pyridine-5-carbonyl]-1H-indole] | > 10 µM | 1 to 25 µM
O=C(c1cc2c(C(F)F)cc(F)cc2[nH]1)N1CCc2n[nH]c(C3CCC3)c2C1 [Example 400, 2-{3-cyclobutyl-2H,4H,5H,6H,7H-pyrazolo[4,3-c]pyridine-5-carbonyl}-4-(difluoromethyl)-6-fluoro-1H-indole] | > 10 µM | < 1 µM
O=C(c1cc2ccccc2[nH]1)N1CCc2[nH]nc(C(=O)N3CC(F)(F)C3)c2C1 [Example 222, 2-[3-(3,3-difluoroazetidine-1-carbonyl)-1H,4H,5H,6H,7H-pyrazolo[4,3-c]pyridine-5-carbonyl]-1H-indole] | > 10 µM | < 1 µM
